Paper PMC7641127, “MCL1 binds and negatively regulates the transcriptional function of tumor suppressor p73” (Cell Death & Disease, 2020)
Like-named read-outs stand apart in the source and are kept apart here. No end group written: not given here.

Legend:
[1] = molecular target: T1, recombinant MCL1 (Homo sapiens, UniProt Q07820); test: Competitive fluorescence polarization assay (FPA), MCL1 with F-BAK probe; format: binding
T1 construct: made in house; host or cells: E. coli BL21 (DE3)
From the text: (§1) We next sought to determine which core domain, the DBD or the TD, of p73 mediates binding to MCL1. […] Therefore, we expressed and purified recombinant p73DBD and tested its ability to associate with MCL1 using competitive fluorescence polarization assay (FPA) analysis and NMR chemical shift perturbation (CSP) studies (Fig. 2a, Supplementary Fig. 1). FPA is a biochemical assay that can either determine the binding constant between a recombinant protein and a fluorescently labeled small molecule or peptide (i.e. direct FPA as a measure of KD) or it can determine the concentration in which an unknown binding partner can compete with bound fluorescently labeled ligand (competitive FPA as a measure of IC50).
In a flat-bottom, untreated black 96-well microplate (ThermoScientific), 80 μL recombinant protein is incubated with 10 μL 10× unlabeled peptide or small molecule inhibitor shaking at 300 rpm for 20 min to allow for binding. Once complete, 10 μL of 10× FITC-peptide is added per well. The plate is covered with an opaque lid to shake for an additional 40 min. After 1 h incubation is complete, the plate is read using the FP-Fluorescein setting (1.0 s, CW lamp filter—F485, emission filter, F535) on a Perkin Elmer Victor X5 plate reader. The buffer used for all assays is 1× PBS, pH 7.4. All experiments were completed in technical and biological triplicate. All data plotted in Fig. 2 is one representative assay in technical triplicate.

[2] = test system: 15N MCL1; test: 2D [15N,1H]-HSQC NMR chemical shift perturbation of 15N MCL1; format: binding, human; conditions: 50 μM 15N MCL1 + 200 μM ligand; 1x PBS pH 6.8; significant CSP = >2SD above mean (0.046 ppm)
Protocol: Fig. 3 P73 binds to the BH3-binding groove of MCL1. a 2D [^15N, ^1H]-HSQC spectra of 50 μM ^15N MCL1 + 2% DMSO (black contours) or 50 μM ^15N MCL1 + 200 μM p73_23mer TD-derived peptide (red contours). Amino acids with significant CSP (Δδ > 0.046 ppm: G217, F228, N239, D241, D242, H252, I264, V265, L267, I268, E292, L298, V299, T301, D304, and H320) or residues that were unable to be identified in the bound spectra (V216, G219, V220, V243, […], S247, R263, G271, R303, K308, and F315) are labeled for reference. b CSP quantified as a function of Δδ ppm for each amino acid residue. The first dotted line indicates 1SD from the mean (0.023) and the solid line indicates 2SD from the mean (0.046). Amino acids with significant CSP were identified as >2SD above the mean (blue). Amino acids that were unable to be identified in the bound spectra were set to −0.01 to differentiate them from peaks with no CSP (red). […]
The NMR HSQC spectra were acquired using a Bruker 600 MHz magnet at the Central Alabama High Field NMR Facility. […] The resulting spectra were analyzed using Computer-Aided Resonance Assignment (CARA) and the peak lists were exported to Microsoft Excel for the CSP quantification and calculation of the mean and standard deviation. […]
Supplemental Fig 1. […] The two cut offs represent the 1 and 2 SD cut offs determined through the 50 µM 15N hMCL1 + 200 µM p7323mer spectra in Fig 2.

[3] = test system: PC-3 cells; test: Annexin V/PI staining with FACS; format: cell-based, human; conditions: N=4
Protocol: Cells were seeded in a six-well plate and treated through various treatments to modulate MCL1 or p73 expression as they were in previous experiments. After the 24 or 48 h treatment, cells were collected through trypsin dissociation and washed twice with sterile DPBS. Cell number was counted on a BioRad Automated Cell Counter. After final wash, cells were pelleted at 1000×g for 10 min. The cell pellet was resuspended in 1× Annexin V binding buffer (BD Pharmingen, 556454) and 5 × 10^5 cells were transferred to a FACS tube containing 5 μL propidium iodide (PI) staining solution (BD Pharmingen, 51-66211E) and 5 μL FITC-Annexin V (BD Pharmingen, 556419). Cells were incubated for 15 min in the dark. FACS was collected on a BD LSRFortessa and analyzed using FlowJo v10. Compensation controls used for analysis include unstained cells and cells stained for each individual fluorophore (FITC-Annexin V and Cy5-PI). Gating strategy eliminated cell debris and doublets through forward and side scatter plots.
Supplemental Fig 3. […] Cells were stained with Annexin V and Propidium Iodide (PI) to determine the apoptotic cell population. […] All plots shown here are representative plots of the data set, N=4.

[4] = test system: H1299 cells; test: TaqMan RT-qPCR of p73 target genes in H1299; format: cell-based, human; conditions: 24 h, normalized to GAPDH, biological and technical triplicate
Protocol: Four known p73 target genes were analyzed by TaqMan RT-qPCR. After a baseline was established, H1299 cells were treated with b an siRNA targeting MCL1 (48 h) or c 2 μM MCL1 inhibitor A1210477 (24 h). […] All experiments were performed in biological and technical triplicate. Bar graphs shown with SEM of one representative assay. A Student’s t-test was applied to each target gene for each treatment for statistical analysis, p-values: *p < 0.05, **p < 0.01, ***p < 0.001, ****p < 0.0001.
RNA was purified from human cancer cell lines for RT-qPCR with the SurePrep TrueTotal RNA Purification Kit (Fisher BioReagents, BP2800-50) by the manufacturer’s protocol. The final concentration of purified RNA was measured using a Nanodrop 2000c spectrophotometer. Once RNA concentration was determined, a single step cDNA synthesis reaction was made in TempAssure PCR 8-Tube Strips (USA Scientific, 1402-2500) in technical duplicate as follows: 100 ng RNA, 16 μL nuclease-free water (Ambion, 1512103), and 4 μL qScript cDNA SuperMix (Quanta BioSciences Inc., 84034). […] Concentration was determined after the cDNA synthesis on the Nanodrop 2000c spectrophotometer. cDNA was diluted to 25 ng/μL into Molecular Biology Grade Water (Corning, 46-000-CM) and stored at −20 °C for future use. […]
All RT-qPCR reactions were performed in biological triplicate. […] All target genes analyzed were normalized to GAPDH. […]

[5] = test system: PC-3 cells; test: Cellular fractionation and western blot after cisplatin; format: cell-based, human; conditions: low dose (printed 5 mM), 24 hours, vs 0.5% DMF, western blot
Protocol: Cellular localization was performed using the NE-PER Nuclear and Cytoplasmic Extraction Reagent Kit (ThermoScientific, 78833) per the manufacturer’s protocol. The western blot quantification analysis was completed in the Image Lab 6.0.1 software using the Adjusted Volume tool. All assays were completed in biological triplicate with one representative image for each treatment group and/or cell line.
Cells were fractionated in cytosolic and nuclear compartments. Protein localization was analyzed through Western Blot analysis. Lamin A/C and GAPDH were used for fractionation controls. Band quantifications using the adjusted volume for each individual band are below for reference. All paired samples are normalized to the WCL treated with DMF alone.

[6] = test system: PC-3 cells; test: TaqMan RT-qPCR of p73 target genes in PC-3; format: cell-based, human; conditions: normalized to GAPDH, biological and technical triplicate
Protocol: All RT-qPCR reactions were performed in biological triplicate. A master mix for each target or housekeeping gene was made with 15 μL RNAse-free water, 3 μL 20× RT-qPCR Primer Mix (ThermoScientific), 12 μL 25 ng/μL cDNA, and 30 μL TaqMan Universal Master Mix II, with UNG (Applied Biosystems, 2020-02-29). The mix was aliquoted out 20 μL/well in technical triplicate with the final concentration of cDNA at 100 ng/reaction. PCR reactions were performed on an Applied Biosystems ViiA 7 Real-Time PCR System for 40 cycles starting at 25 °C. Each cycle is 50 °C for 2 min, 95 °C for 10 min, and 15 s, and 60 °C for 1 min. Temperature shifts at 1.6 °C/s. All data are collected and analyzed using Applied Biosystems QuantStudio Real-Time PCR Software. All target genes analyzed were normalized to GAPDH. All primers had FAM-MGB probes. All TaqMan primers were ordered from ThermoFisher Scientific with the target gene and Assay ID included: CDKN2A/p21 (Hs00355782_m1), PMAIP1/NOXA (Hs00560402_m1), GADD45A (Hs00169255_m1), BBC3/PUMA (Hs00248075_m1), GAPDH (Hs02758991_g1).
Four known p73 target genes were analyzed by TaqMan RT-qPCR. After a baseline was established, cells were treated with b an siRNA targeting MCL1 or c 2 μM MCL1 inhibitor A1210477. […] All experiments were performed in biological and technical triplicate. Bar graphs shown with SEM of one representative assay. […]

[7] = molecular target: T1, recombinant MCL1; test: Direct FPA of FITC-labeled peptides with MCL1; format: binding; conditions: N-terminally FITC-labeled peptide with recombinant MCL1; 1x PBS pH 7.4; 30 min; at or approaching limit of detection of probe
From the text: as §1
The buffer used for all assays is 1× PBS, pH 7.4. All experiments were completed in technical and biological triplicate.

[8] = competitive FPA, 50 nM recombinant MCL1, 10 nM F-BAK, unlabeled peptide titration, 1x PBS pH 7.4, 20 min pre-incubation + 40 min, mean ± SD, biological and technical triplicate, read-out: FPA IC50

T1 sequence (Q07820 whole entry): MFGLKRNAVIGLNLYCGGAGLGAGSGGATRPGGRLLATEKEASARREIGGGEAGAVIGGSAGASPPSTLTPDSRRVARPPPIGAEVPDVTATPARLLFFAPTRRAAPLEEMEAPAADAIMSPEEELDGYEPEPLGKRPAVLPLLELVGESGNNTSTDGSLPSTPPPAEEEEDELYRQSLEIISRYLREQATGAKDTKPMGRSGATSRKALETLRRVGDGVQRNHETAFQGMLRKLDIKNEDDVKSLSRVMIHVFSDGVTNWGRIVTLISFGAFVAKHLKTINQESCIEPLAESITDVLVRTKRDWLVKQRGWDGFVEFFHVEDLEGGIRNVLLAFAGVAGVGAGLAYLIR

With “p73DBD: recombinant p73 DNA-binding domain alone, amino acids 112–311” the “Association with MCL1 in competitive FPA” value ([1]; 50 nM recombinant MCL1, 10 nM F-BAK, titration of unlabeled protein) was “Neither NMR nor competitive FPA analysis exhibited significant changes” and the “Chemical shift perturbation of MCL1” value [2] was “No amino acids in this spectra exhibited significant shifts”.
In the case of N.N.[Cl][Pt][Cl] [cisplatin], the “Apoptosis, Annexin V/PI, positive control” value ([3]; 50 µM) is reported as “significant increase in apoptosis”, the “p73 target gene expression (p21, NOXA, GADD45, PUMA)” value (“p73 target gene expression” for short) ([4]; 10 μM) is reported as “statistically significant increases in expression in at least three of the four p73 target genes” and the “MCL1 protein levels in cytoplasmic and nuclear fractions” value [5] is reported as “increase MCL1 levels in both the cytoplasmic and nuclear compartments”. For the same molecule, the “p73 target gene expression” value ([6]; 5 μM, 24 h) was “statistically significant increases in expression in at least three of the four p73 target genes”.
With Cc1nn(C)c(COc2ccc(N3CCN(S(=O)(=O)N(C)C)CC3)cc2)c1-c1cccc2c(CCCOc3cccc4ccccc34)c(C(=O)O)n(CCN3CCOCC3)c12 [A1210477] the IC50 [1] was 2590 nM, the “Apoptotic induction, Annexin V/PI” value ([3]; 2 μM, 24 hours, vs 0.5% DMSO) was “no increase in apoptotic induction” and the “p73 target gene expression” value ([4]; 2 μM) was “significant increases in gene expression in at least three of the four p73 target genes”. For the same molecule, the “p73 target gene expression” value ([6]; 2 μM) was “significant increases in gene expression in at least three of the four p73 target genes”.
Work on DEDTYYLQVR-NH2 [β1] yielded an IC50 [1, 8] greater than 10000 nM.
GRENFEILMKLKESLELMELVPQ-NH2 [p73_23mer] gave an IC50 ([1]; competitive FPA, 50 nM recombinant MCL1, 10 nM F-BAK, unlabeled peptide titration, 1x PBS pH 7.4, 20 min pre-incubation + 40 min, mean ± SD, biological and technical triplicate, SD, read-out: FPA IC50) of 982 ± 195 nM and a Kd [7] of no more than 5 nM.
For VPQPLVDSYRQQQQLLQR-NH2 [α2], the IC50 [1, 8] was greater than 10000 nM.
